Assay: xn = mol fraction of the nth substance listed
Conditions: Liquid, Vibrating tube method

CCCCCCCC [octane] + CCCCCC
Conditions | mass density [kg/m3]
312.91 K, 1000 kPa, x2 = 0.2199 | 680.43
312.91 K, 2000 kPa, x2 = 0.2199 | 681.31
312.91 K, 3000 kPa, x2 = 0.2199 | 682.24
312.91 K, 4000 kPa, x2 = 0.2199 | 683.15
312.91 K, 5000 kPa, x2 = 0.2199 | 684.07
312.91 K, 6000 kPa, x2 = 0.2199 | 684.99
312.91 K, 7000 kPa, x2 = 0.2199 | 685.92
312.91 K, 8000 kPa, x2 = 0.2199 | 686.87
312.91 K, 9000 kPa, x2 = 0.2199 | 687.8
312.91 K, 10000 kPa, x2 = 0.2199 | 688.73
312.91 K, 11000 kPa, x2 = 0.2199 | 689.64
312.91 K, 12000 kPa, x2 = 0.2199 | 690.55
312.91 K, 13000 kPa, x2 = 0.2199 | 691.47
312.91 K, 14000 kPa, x2 = 0.2199 | 692.36
312.91 K, 15000 kPa, x2 = 0.2199 | 693.23
312.91 K, 16000 kPa, x2 = 0.2199 | 694.09
312.91 K, 17000 kPa, x2 = 0.2199 | 694.93
312.91 K, 18000 kPa, x2 = 0.2199 | 695.75
312.91 K, 19000 kPa, x2 = 0.2199 | 696.54
312.91 K, 20000 kPa, x2 = 0.2199 | 697.32
312.91 K, 21000 kPa, x2 = 0.2199 | 698.1
312.91 K, 22000 kPa, x2 = 0.2199 | 698.86
312.91 K, 23000 kPa, x2 = 0.2199 | 699.56
312.91 K, 24000 kPa, x2 = 0.2199 | 700.29
312.91 K, 25000 kPa, x2 = 0.2199 | 700.96
313.14 K, 1000 kPa, x2 = 0.1654 | 682.2
313.14 K, 1000 kPa, x2 = 0.5749 | 666.9
313.14 K, 1000 kPa, x2 = 0.7995 | 655.29
313.14 K, 1000 kPa, x2 = 0.9308 | 647.6
313.14 K, 2000 kPa, x2 = 0.1654 | 683.1
313.14 K, 2000 kPa, x2 = 0.5749 | 667.85
313.14 K, 2000 kPa, x2 = 0.7995 | 656.27
313.14 K, 2000 kPa, x2 = 0.9308 | 648.65
313.14 K, 3000 kPa, x2 = 0.1654 | 684.01
313.14 K, 3000 kPa, x2 = 0.5749 | 668.75
313.14 K, 3000 kPa, x2 = 0.7995 | 657.26
313.14 K, 3000 kPa, x2 = 0.9308 | 649.73
313.14 K, 4000 kPa, x2 = 0.1654 | 684.9
313.14 K, 4000 kPa, x2 = 0.5749 | 669.74
313.14 K, 4000 kPa, x2 = 0.7995 | 658.29
313.14 K, 4000 kPa, x2 = 0.9308 | 650.78
313.14 K, 5000 kPa, x2 = 0.1654 | 685.84
313.14 K, 5000 kPa, x2 = 0.5749 | 670.74
313.14 K, 5000 kPa, x2 = 0.7995 | 659.31
313.14 K, 5000 kPa, x2 = 0.9308 | 651.85
313.14 K, 6000 kPa, x2 = 0.1654 | 686.8
313.14 K, 6000 kPa, x2 = 0.5749 | 671.71
313.14 K, 6000 kPa, x2 = 0.7995 | 660.34
313.14 K, 6000 kPa, x2 = 0.9308 | 652.92
313.14 K, 7000 kPa, x2 = 0.1654 | 687.71
313.14 K, 7000 kPa, x2 = 0.5749 | 672.72
313.14 K, 7000 kPa, x2 = 0.7995 | 661.38
313.14 K, 7000 kPa, x2 = 0.9308 | 654
313.14 K, 8000 kPa, x2 = 0.1654 | 688.62
313.14 K, 8000 kPa, x2 = 0.5749 | 673.69
313.14 K, 8000 kPa, x2 = 0.7995 | 662.44
313.14 K, 8000 kPa, x2 = 0.9308 | 655.08
313.14 K, 9000 kPa, x2 = 0.1654 | 689.54
313.14 K, 9000 kPa, x2 = 0.5749 | 674.66
313.14 K, 9000 kPa, x2 = 0.7995 | 663.49
313.14 K, 9000 kPa, x2 = 0.9308 | 656.16
313.14 K, 10000 kPa, x2 = 0.1654 | 690.46
313.14 K, 10000 kPa, x2 = 0.5749 | 675.65
313.14 K, 10000 kPa, x2 = 0.7995 | 664.53
313.14 K, 10000 kPa, x2 = 0.9308 | 657.23
313.14 K, 11000 kPa, x2 = 0.1654 | 691.38
313.14 K, 11000 kPa, x2 = 0.5749 | 676.63
313.14 K, 11000 kPa, x2 = 0.7995 | 665.56
313.14 K, 11000 kPa, x2 = 0.9308 | 658.29
313.14 K, 12000 kPa, x2 = 0.1654 | 692.28
313.14 K, 12000 kPa, x2 = 0.5749 | 677.6
313.14 K, 12000 kPa, x2 = 0.7995 | 666.56
313.14 K, 12000 kPa, x2 = 0.9308 | 659.33
313.14 K, 13000 kPa, x2 = 0.1654 | 693.17
313.14 K, 13000 kPa, x2 = 0.5749 | 678.56
313.14 K, 13000 kPa, x2 = 0.7995 | 667.56
313.14 K, 13000 kPa, x2 = 0.9308 | 660.36
313.14 K, 14000 kPa, x2 = 0.1654 | 694.06
313.14 K, 14000 kPa, x2 = 0.5749 | 679.5
313.14 K, 14000 kPa, x2 = 0.7995 | 668.54
313.14 K, 14000 kPa, x2 = 0.9308 | 661.38
313.14 K, 15000 kPa, x2 = 0.1654 | 694.94
313.14 K, 15000 kPa, x2 = 0.5749 | 680.41
313.14 K, 15000 kPa, x2 = 0.7995 | 669.51
313.14 K, 15000 kPa, x2 = 0.9308 | 662.38
313.14 K, 16000 kPa, x2 = 0.1654 | 695.81
313.14 K, 16000 kPa, x2 = 0.5749 | 681.32
313.14 K, 16000 kPa, x2 = 0.7995 | 670.45
313.14 K, 16000 kPa, x2 = 0.9308 | 663.36
313.14 K, 17000 kPa, x2 = 0.1654 | 696.65
313.14 K, 17000 kPa, x2 = 0.5749 | 682.2
313.14 K, 17000 kPa, x2 = 0.7995 | 671.4
313.14 K, 17000 kPa, x2 = 0.9308 | 664.33
